Values quoted from earlier work as cited in paper PMC10177510, “A Multicenter, Open-Label, Phase I/II Study of FN-1501 in Patients with Advanced Solid Tumors” (Cancers, 2023).

Tests used:
[1] = system: MV-4-11 xenograft; details: preclinical, no reference given; cited from earlier work
[2] = system: MOLM-13 xenograft; details: preclinical, no reference given; cited from earlier work

CN1CCN(Cc2ccc(NC(=O)c3[nH]ncc3Nc3ncnc4[nH]ccc34)cc2)CC1 [FN-1501]
Dose at which tumor growth reached stasis [1]: 5 mg/kg | Dose at which tumor growth reached stasis [2]: 20 mg/kg
